Measurements published in patent US8568802B2, “Process for producing enriched fractions of tetrahydroxycurcumin and tetrahydrotetrahydroxy-curcumin from the extracts of Curcuma longa” (Laila Impex, priority 2005, dated 2013).

What was measured:
5-Lipoxygenase = 5-Lipoxygenase inhibitory activity (colorimetric, ferric xylenol orange); assay type: biochemical
Experimental: 5-Lipoxygenase activity: The enriched fraction of tetrahydroxycurcumin mixture, pure TC and tetrahydrotetrahydroxycurcumin fraction were screened for their 5-Lipoxygenase inhibitory potential using colorimetric method. The assay mixture contained 50 mM phosphate buffer pH 6.3, 5-Lipoxygenase, various concentrations of test substances in dimethyl sulphoxide and linoleic acid in a total volume of 0.5 mL, after 5 min incubation of above reaction mixture, 0.5 mL ferric xylenol orange reagent was added and OD was measured after two minutes at 585 nm using spectrophotometer. […] Percent inhibition was calculated by comparing absorbance of test solution with that of control.

[1] = test system: carrageenin induced paw edema; experiment: Anti-inflammatory activity (carragenin induced paw edema method); assay type: in vivo, Albino wistar rats; settings: at 25 mg concentration, oral, paw volume 3 h after carrageenin
Experimental: The invention also describes use of enriched tetrahydroxycurcumin fraction containing 70-100% of TC for treating anti-inflammatory conditions.
Anti-inflammatory activity (Carragenin induced paw edema method): Prior to the experiment all the animals (Albino wistar rats of either sex weighing between 180-300 g) fasted at ad libitum water and were weighed, numbered and randomly divided into groups, each containing 3 animals. Initial paw volumes were measured using plethesmometer and noted. All the groups were treated with corresponding test substance orally using gastric tube. Control group was treated with 10 mL/Kg vehicle (0.5%, carboxymethyl cellulose sodium salt). After 30 minutes, all the animals were injected subcutaneously at subplantar region of left hind paw 1% carrageenin 0.1 mL using hypodermic needle. All the animals were administered water 20 mL/Kg body weight and kept devoid of water for 3 h (maintained uniform hydration). After 3 h, paw volumes of all the animals were measured twice and average volume from two measurements were recorded. The % of inhibition of paw edema was calculated by comparing paw edema of test substance treated groups with that of control groups.

Compound: Acetyl-keto-boswellic acid [AKBA]
- % of inhibition (5-Lipoxygenase) (5-Lipoxygenase; concentration 41 μg/mL): 55%

Compound: O=C(O)Cc1ccccc1Nc1c(Cl)cccc1Cl [diclofenac sodium]
- % inhibition of paw edema [1]: 63.10%

Compound: CC(Cc1ccc(O)c(O)c1)C(C)Cc1ccc(O)c(O)c1 (centres unmarked) [NDGA, Nordihydroguaiaretic acid]
- % of inhibition (5-Lipoxygenase) (5-Lipoxygenase; concentration 24 μg/mL): 60%

Compound: O=C(/C=C/c1ccc(O)c(O)c1)CC(=O)/C=C/c1ccc(O)c(O)c1 [Pure tetrahydroxycurcumin (TC), 1,7-Bis(3,4-dihydroxyphenyl)-1,6-heptadiene-3,5-dione]
- % of inhibition (5-Lipoxygenase) (5-Lipoxygenase; concentration 16 μg/mL): 60%
- melting point: 302 to 304 °C
